For series [1] the following is noted: oral administration, degraded by the liver; cited from earlier work.
Series [2] in a line: Serum testosterone pharmacokinetics after subcutaneous or OralJect transmucosal delivery (radioimmunoassay). In kind it is in vivo, New Zealand White rabbit. Conditions: for Cmax: mean. The method, then: Testosterone (Sigma Chemicals) was milled and sieved into a particle size range (approximately 50-100 μm) suitable for transmucosal delivery from a needleless syringe using standard stainless steel mesh sieves. Female New Zealand White rabbit subjects weighing between 2.2-2.8 kg were used and allowed food and water ad libitum. The rabbits (n=8) were randomly assigned to one of two treatment groups. The first treatment group received testosterone (2.0 mg dose) as a suspension in 35% polyvinylpyrrolidone C-30 in water (6 mg/g testosterone concentration) via subcutaneous injection. The second treatment group received testosterone (2.0 mg dose of testosterone particles ranging from 53-75 μm) as two 1.0 mg transmucosal administrations from an OralJect™ needleless syringe device abutted against the cheek mucosa.
Whole blood (1.0 ml) was taken at times 0, 0.5, 1, 2, 4, 6, 8, 12, 24 and 48 hours, the serum aspirated and assayed for testosterone by radioimmunoassay (DPC). The OralJect™ device is a prototype device of the present invention that is actuated by helium at 40 bar.

Series [3] has as its system oral mucosa. The experiment in a line: Local anaesthesia: pain response to probing oral mucosa with back of 27G dental needle, visual analogue scale. The following applies: 3.0 mg particles via needleless syringe; probe of treated area 1 minute post delivery; untreated 55.6%, placebo 30.6%. The class given is in vivo, human.
Procedure: A randomized, double-blind study was then carried out as follows. Treatments were given to 14 subjects over the course of three visits. The treatments provided to the subjects in each visit were either a single 3.0 mg dose of Lignocaine HCL particles from the above-described needleless syringe device, or 0.0 mg (as a blinded negative control). Accordingly, treatments provided over the course of the three visits were either: two actual (3.0 mg) doses of the anaesthetic particles and one placebo; or two placebos and one actual (3.0 mg) dose. Pain stimulus was provided by probing oral mucosa with the back of a 27G dental needle, wherein the probe sequence was a probe on an untreated area of the mucosa, and then a probe on the treated area of the mucosa 1 minute post delivery. Again, the pain associated with the probe of the untreated and treated areas was scored on visual analogue scales using the above scoring methods immediately after each probe.
Series [4] relates to oral mucosa. The experiment in a line: Visual assessment of oral mucosa delivery sites for damage or irritation after needleless syringe delivery. The class given is in vivo, human. The following applies: single 3 mg dose, particles 38-53 μm, 14 subjects, 24-48 hours after delivery. Here is the method: A randomized, double-blind, negatively controlled study was carried out in normal, healthy human subjects as follows. Initially, a single 3 mg dose of lignocaine HCL particles sized between 38 and 53 μm was delivered from a needleless syringe constructed in accordance with the invention. The lignocaine was delivered to the oral mucosa adjacent to the number 12 and 22 lateral incisors in 14 trial subjects. The delivery sites were then visually assessed for evidence of damage or irritation to the mucosal tissues.

The conditions of series [5]: in vivo. Here is the method: In a second study, a single 3.0 mg dose of lignocaine HCL particles (as above) was delivered using a needleless syringe, and a single 0.2 mL dose of 2% lignocaine HCL was delivered via needle-syringe injection. Pain associated with the administration of each treatment was scored in all 14 subjects using a 100 mm visual analogue scale immediately after each treatment, wherein 100% indicates a painful treatment, and 0% indicates a pain-free treatment. The needleless syringe employed in the study was operated using 40 bar helium driving gas to expel anaesthetic particles from a flexible, eversible dome-shaped membrane comprised of a 400 μm, 6 mm polyurethane film.

Each structure is given as a SMILES string. Structures can show the parent of a compound that is named as a salt.

By bioavailability is commonly meant the share of a dose that reaches the circulation, judged against a reference dose that is usually intravenous. For orientation: Tmax means the time at which the peak concentration occurs.

`C[C@]12CC[C@H]3[C@@H](CCC4=CC(=O)CC[C@@]43C)[C@@H]1CC[C@@H]2O` [testosterone, Testosterone]: the first pass degradation in series [1] is recorded as 98%. For the same compound, the Cmax in series [2] (OralJect transmucosal (cheek mucosa), 2 x 1.0 mg particles 53-75 μm, rabbit serum) is reported as 25.5 ± 3.5 nmol/I; in series [2] (subcutaneous injection, 2.0 mg suspension in 35% polyvinylpyrrolidone C-30, rabbit serum) it was 34.8 ± 6.9 nmol/I. Further, the “second minor peak of serum testosterone, time post administration” value in series [2] (OralJect transmucosal, possible depot effect) was 12 h. Besides, the bioavailability in series [2] (female, New Zealand White, rabbit, serum, 2 mg, OralJect transmucosal, 2.0 mg, rabbit, read-out: % BA (% bioavailability)) is approximately 48.3%. In addition, the Tmax in series [2] (female, New Zealand White, rabbit, serum, OralJect transmucosal, 2.0 mg, all animals) was 30 min. For the same compound, the Cmax range in series [2] (subcutaneous injection, 2.0 mg, rabbit serum) is 26.9 − 55.2 nmol/I.
As for `CCN(CC)CC(=O)Nc1c(C)cccc1C` [lignocaine HCL], in series [3], the “mean pain response score to probe” value worked out at 15.0%. For the same compound, the “tissue reaction at delivery sites” value in series [4] was “no evidence of any tissue reaction”. Besides, the “pain associated with administration, mean visual analogue score” value in series [5] was 49.9%.

Values taken from patent publication US6592545B1, “Particle delivery” (PowderJect Research Limited, priority 1994, dated 2003).
